Here are results for 6 compounds from patent EP4667466A1, “PROTAC DEGRADERS OF MLLT1 AND/OR MLLT3” (priority 2024, dated 2025).

The structures appear in SMILES notation.

The target of assay [1] is T1, MLLT1 (Homo sapiens, UniProt Q03111).
T1 construct: endogenous in cells; host or cells: MV4-11 (ATCC CRL-9591)
T1 sequence (Q03111 1-559): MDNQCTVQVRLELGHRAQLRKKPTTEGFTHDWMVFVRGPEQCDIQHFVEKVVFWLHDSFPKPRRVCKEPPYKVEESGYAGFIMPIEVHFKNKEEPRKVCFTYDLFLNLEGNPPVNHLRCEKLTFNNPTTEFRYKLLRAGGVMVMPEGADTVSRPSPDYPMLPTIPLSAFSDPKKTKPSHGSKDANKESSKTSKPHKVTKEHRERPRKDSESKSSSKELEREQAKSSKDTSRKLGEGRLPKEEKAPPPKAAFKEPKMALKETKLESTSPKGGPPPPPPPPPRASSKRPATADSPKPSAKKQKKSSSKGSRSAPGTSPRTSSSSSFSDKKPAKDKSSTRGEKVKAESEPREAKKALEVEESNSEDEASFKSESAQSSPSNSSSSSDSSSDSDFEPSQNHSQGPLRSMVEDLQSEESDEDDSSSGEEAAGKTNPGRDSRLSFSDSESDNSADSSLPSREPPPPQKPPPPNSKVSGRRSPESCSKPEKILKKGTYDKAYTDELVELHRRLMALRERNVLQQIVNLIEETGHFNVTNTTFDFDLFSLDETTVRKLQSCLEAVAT
As to the kind of experiment: MLLT1 degradation assay (JESS automated chemiluminescent detection) in MV4-11 cells. It is filed as cell-based. As to conditions: 24h, with respect to DMSO control. The essentials: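 MV4-11 cells were treated with 1000, 100 or 10 nM compound (0.1% DMSO) for 24 h at 37 °C. Lysates (4 µg protein) were probed for MLLT1 and GAPDH by JESS capillary chemiluminescence. Degradation was calculated from band peak areas versus DMSO control and binned into categories A–D.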

In assay [2] the test system is MV4-11 cells. As to the kind of experiment: MV4-11 cellular proliferation assay, Assay Format A (CellTiter-Glo, 120 hours). The class given is cell-based. As to conditions: Homo sapiens, Assay method A, read-out: MV4-11 antiproliferative IC50. The procedure:
An MV4-11 proliferation assay was used to test the ability of compounds to reduce cell viability.
After 120 hours of treatment, cells were incubated for 10 min at RT with the CellTiter-Glo (CTG) reagent (G7571, Promega). Measurement of the luminescence signal was performed on a microplate reader (Ensight, PerkinElmer). CTG reagent measures the amount of ATP, which is directly proportional to the number of cells, to determine the number of viable cells in culture.
The data were analysed as follows: Data normalization, N(x) = (x−〈cr〉)/(〈sr〉−〈cr〉) × 100 [formula] where x is the measured raw signal value of a well, (cr) is the median of the measured signal values for the Central Reference (DMSO) wells on a plate, (sr) is the median of the measured signal values for the Scale Reference (reference compound) wells on a plate. Curve fitting, S0 + (Sinf −S0)/(1 + (((AC50)/(10^c)))^n) [formula] where the experimental set-up assumes the Hill parameters in certain ranges: S0 ~ Central Reference (CR) from normalization (= Bottom), Sinf ~ Scale Reference (SR) from normalization (= Top), nHill ~ 1, AC50 ~ within the measured concentration range.

For the compound `Cc1nn(CCCCCCC#Cc2cccc3c2CN(C2CCC(=O)NC2=O)C3=O)c2cc(C(=O)Nc3cc4[nH]c([C@H]5CCCN5C)cc4cn3)ccc12` (stereo partly drawn) [Example 45, 1-(8-(2-(2,6-dioxopiperidin-3-yl)-1-oxoisoindolin-4-yl)oct-7-yn-1-yl)-3-methyl-N-(2-((R)-1-methylpyrrolidin-2-yl)-1H-pyrrolo[3,2-c]pyridin-6-yl)-1H-indazole-6-carboxamide], in assay [1], the inhibition at 0.01 µM was at least 75%, the inhibition at 0.1 µM was at least 75% and the inhibition at 1 µM is at least 75%. The IC50 in assay [2] was 10 nM.

In assay [1], `Cc1nn(CCCCCC#Cc2cccc3c2CN(C2CCC(=O)NC2=O)C3=O)c2cc(C(=O)Nc3cc4[nH]c([C@H]5CCCN5C)cc4cn3)ccc12` (stereo partly drawn) [Example 30, 1-(7-(2-(2,6-dioxopiperidin-3-yl)-1-oxoisoindolin-4-yl)hept-6-yn-1-yl)-3-methyl-N-(2-((R)-1-methylpyrrolidin-2-yl)-1H-pyrrolo [3,2-c]pyridin-6-yl)-1H-indazole-6-carboxamide] registered an inhibition at 0.01 µM of at least 75%, an inhibition at 0.1 µM of at least 75% and an inhibition at 1 µM of at least 75%. Besides, the half-inhibitory concentration (IC50) in assay [2] came to 6 nM.

`Cc1nn(CCCCCCCCNc2ccc3c(c2)C(=O)N(C2CCC(=O)NC2=O)C3=O)c2cc(C(=O)Nc3cc4[nH]c([C@@H]5CCCN5C)cc4cn3)ccc12` (stereo partly drawn) [Example 15, 1-(8-{[2-(2,6-dioxopiperidin-3-yl)-1,3-dioxoisoindol-5-yl]amino}octyl)-3-methyl-N-{2-[(2S)-1-methylpyrrolidin-2-yl]-1H-pyrrolo[3,2-c]pyridin-6-yl}indazole-6-carboxamide]: in assay [1], the inhibition at 0.01 µM was under 25%, the inhibition at 0.1 µM is at least 75% and the inhibition at 1 µM is at least 75%. Moreover, in assay [2], the half-maximal inhibitory concentration (IC50) was 12 nM.

For the compound `Cc1nn(CCCCCCCC#Cc2cccc3c2CN(C2CCC(=O)NC2=O)C3=O)c2cc(C(=O)Nc3cc4[nH]c([C@H]5CCCN5C)cc4cn3)ccc12` (mixture of isomers) [Example 1, 1-(9-(2-(2,6-dioxopiperidin-3-yl)-1-oxoisoindolin-4-yl)non-8-yn-1-yl)-3-methyl-N-(2-((R)-1-methylpyrrolidin-2-yl)-1H-pyrrolo[3,2-c]pyridin-6-yl)-1H-indazole-6-carboxamide], in assay [1], the inhibition at 0.01 µM was at least 75%, the inhibition at 0.1 µM was at least 75% and the inhibition at 1 µM is at least 75%. Moreover, in assay [2], the IC50 is 4 nM.

On to `Cc1nn(CCOCCOCCNc2cccc3c2C(=O)N(C2CCC(=O)NC2=O)C3=O)c2cc(C(=O)Nc3cc4[nH]c([C@H]5CCCN5C)cc4cn3)ccc12` (stereo partly drawn) [Example 25, 1-(2-(2-(2-((2-(2,6-dioxopiperidin-3-yl)-1,3-dioxoisoindolin-4-yl)amino)ethoxy)ethoxy)ethyl)-3-methyl-N-(2-((R)-1-methylpyrrolidin-2-yl)-1H-pyrrolo[3,2-c]pyridin-6-yl)-1H-indazole-6-carboxamide], for which, in assay [1], the inhibition at 0.1 µM is at least 75% and the inhibition at 1 µM was at least 75%. In assay [2], the IC50 was 11 nM.

In assay [1], `[2H]C([2H])([2H])N1CCC[C@@H]1c1cc2cnc(NC(=O)c3ccc4c(C)nn(CCCCCCCC#Cc5cccc6c5CN(C5CCC(=O)NC5=O)C6=O)c4c3)cc2[nH]1` (stereo partly drawn) [Example 44, 1-(9-(2-(2,6-dioxopiperidin-3-yl)-1-oxoisoindolin-4-yl)non-8-yn-1-yl)-3-methyl-N-(2-((R)-1-(methyl-d3)pyrrolidin-2-yl)-1H-pyrrolo[3,2-c]pyridin-6-yl)-1H-indazole-6-carboxamide] came in with an inhibition at 0.01 µM of 50 to 75%, an inhibition at 0.1 µM of at least 75% and an inhibition at 1 µM of at least 75%. Besides, in assay [2], the half-maximal inhibitory concentration (IC50) was found to be 5 nM.
